Data: patent US11753407B2, “Compounds for treating spinal muscular atrophy” (PTC Therapeutics, Inc., priority 2012, dated 2023)
Structures can show the parent of a compound that is named as a salt.

What was measured:
[1] = tested on: SMN2 minigene mRNA (SMN2-A minigene) in HEK293H cells; test: SMN2 minigene mRNA splicing RT-qPCR assay in cultured cells; assay type: cell-based, human; settings: Homo sapiens, HEK293-H; concentration increasing full length SMN2 mRNA 1.5-fold relative to vehicle-treated cells; HEK293H cells with SMN2-A minigene, 24 hours, 7-point concentration data; read-out: EC1.5x for production of full length SMN2 mRNA
Method in brief: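 Cells are seeded, left to attach 4-6 h, then dosed with test compound across seven concentrations and incubated 24 h. Lysates undergo RT-qPCR with primers/probe specific to the exon 7-containing minigene transcript, co-amplified with GAPDH. Fold change over vehicle is calculated, and EC1.5× marks the 1.5-fold point.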

[2] = tested on: Smn protein in SMA patient fibroblast cells (GM03813); test: Smn protein assay in cultured cells (SMN HTRF); assay type: cell-based, human; settings: SMA patient fibroblast cells, 48 hours; for maximum fold (Fold) increase of Smn protein: 7-point concentration data, fold relative to vehicle control; for EC1.5x for Smn protein expression: 7-point concentration curve, SMN HTRF, concentration producing 1.5 times Smn protein vs DMSO vehicle control
Method in brief: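 Patient-derived SMA fibroblasts are plated, given compound for 48 h, then lysed in RIPA buffer with protease inhibitors. Lysate Smn is detected by an anti-SMN d2/kryptate HTRF pair incubated overnight. The normalized ΔF is divided by the vehicle ΔF to give fold change, from which EC1.5× and maximum fold are taken.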

| Structure (SMILES) | melting point | EC (1.5-fold increase) [1] | maximum fold (Fold) increase of Smn protein [2] | EC1.5x for Smn protein expression [2] |
| --- | --- | --- | --- | --- |
| COc1ccc(-c2cc(=O)n3cc(N4CCN(C)CC4)ccc3n2)cc1 [Compound 2, 2-(4-methoxyphenyl)-7-(4-methylpiperazin-1-yl)-4H-pyrido[1,2-a]pyrimidin-4-one] | 178 to 182 °C | 1 to 3 µM | ** (a fold increase between >1.2 and ≤1.35 is indicated by two stars (**)) |  |
| COc1ccc(-c2cc(=O)n3cc(N4CCN[C@H](C)C4)ccc3n2)cc1 [Compound 3, 2-(4-methoxyphenyl)-7-[(3R)-3-methylpiperazin-1-yl]-4H-pyrido[1,2-a]pyrimidin-4-one] | 152 to 154 °C | 0.3 to 1 µM | *** (a fold increase between >1.35 and ≤1.5 is indicated by three stars (***)) | ** (an EC1.5× between >1 μM and ≤3 μM is indicated by two stars (**)) |
| COc1ccc(-c2cc(=O)n3cc(N4C[C@@H](C)N[C@@H](C)C4)ccc3n2)cc1 [Compound 4, 7-[(3R,5S)-3,5-dimethylpiperazin-1-yl]-2-(4-methoxyphenyl)-4H-pyrido[1,2-a]pyrimidin-4-one] | 185 to 187 °C | 1 to 3 µM | * (A maximum fold increase of ≤1.2 is indicated by one star (*)) |  |
| COc1ccc(-c2cc(=O)n3cc(N4CCCNCC4)ccc3n2)cc1 [Compound 5, 7-(1,4-diazepan-1-yl)-2-(4-methoxyphenyl)-4H-pyrido[1,2-a]pyrimidin-4-one] | 149 to 152 °C | 3 to 30 µM | * (A maximum fold increase of ≤1.2 is indicated by one star (*)) |  |
| COc1ccc(-c2cc(=O)n3cc(N4CCNC(C)(C)C4)ccc3n2)cc1OC [Compound 7, 2-(3,4-dimethoxyphenyl)-7-(3,3-dimethylpiperazin-1-yl)-4H-pyrido[1,2-a]pyrimidin-4-one] | 138 to 140 °C | 0.3 to 1 µM | *** (a fold increase between >1.35 and ≤1.5 is indicated by three stars (***)) |  |
| COc1ccc(-c2cc(=O)n3cc(N4CCN[C@H](C)C4)ccc3n2)cc1OC [Compound 8, 2-(3,4-dimethoxyphenyl)-7-[(3R)-3-methylpiperazin-1-yl]-4H-pyrido[1,2-a]pyrimidin-4-one] | 181 to 184 °C | 0.1 to 0.3 µM | **** (a fold increase between >1.5 and ≤1.65 is indicated by four stars (****)) | ** (an EC1.5× between >1 μM and ≤3 μM is indicated by two stars (**)) |
| CCN1CCN(c2ccc3nc(-c4ccc(OC)c(OC)c4)cc(=O)n3c2)CC1 [Compound 9, 2-(3,4-dimethoxyphenyl)-7-(4-ethylpiperazin-1-yl)-4H-pyrido[1,2-a]pyrimidin-4-one] | 159 to 162 °C | 1 to 3 µM | *** (a fold increase between >1.35 and ≤1.5 is indicated by three stars (***)) |  |
| COc1ccc(-c2cc(=O)n3cc(N4CCCN(C)CC4)ccc3n2)cc1OC [Compound 11, 2-(3,4-dimethoxyphenyl)-7-(4-methyl-1,4-diazepan-1-yl)-4H-pyrido[1,2-a]pyrimidin-4-one] | 166 to 168 °C | 0.3 to 1 µM | *** (a fold increase between >1.35 and ≤1.5 is indicated by three stars (***)) |  |
| COc1ccc(-c2cc(=O)n3cc(N4CCN[C@@H](C)C4)ccc3n2)cc1 [Compound 12, 2-(4-methoxyphenyl)-7-[(3S)-3-methylpiperazin-1-yl]-4H-pyrido[1,2-a]pyrimidin-4-one] | 158 to 160 °C | 0.3 to 1 µM | *** (a fold increase between >1.35 and ≤1.5 is indicated by three stars (***)) |  |
| COc1ccc(-c2cc(=O)n3cc(N4CCN(C)CC4)ccc3n2)cc1OC [Compound 13, 2-(3,4-dimethoxyphenyl)-7-(4-methylpiperazin-1-yl)-4H-pyrido[1,2-a]pyrimidin-4-one] | 183 to 185 °C | 1 to 3 µM | ** (a fold increase between >1.2 and ≤1.35 is indicated by two stars (**)) |  |
| COc1ccc(-c2cc(=O)n3cc(N4C[C@@H](C)N[C@@H](C)C4)ccc3n2)cc1OC [Compound 14, 2-(3,4-dimethoxyphenyl)-7-[(3R,5S)-3,5-dimethylpiperazin-1-yl]-4H-pyrido[1,2-a]pyrimidin-4-one] | 182 to 187 °C | 1 to 3 µM | *** (a fold increase between >1.35 and ≤1.5 is indicated by three stars (***)) |  |
| CCCN1CCN(c2ccc3nc(-c4ccc(OC)c(OC)c4)cc(=O)n3c2)CC1 [Compound 15, 2-(3,4-dimethoxyphenyl)-7-(4-propylpiperazin-1-yl)-4H-pyrido[1,2-a]pyrimidin-4-one] | 185 to 189 °C | 1 to 3 µM | *** (a fold increase between >1.35 and ≤1.5 is indicated by three stars (***)) |  |

Further lines, with some results ahead:

| melting point | Structure (SMILES) | EC (1.5-fold increase) [1] | maximum fold (Fold) increase of Smn protein [2] | EC1.5x for Smn protein expression [2] |
| --- | --- | --- | --- | --- |
| 290 °C (dec.) | O=c1cc(-c2cc(F)c(O)c(F)c2)nc2ccc(N3CCNCC3)cn12 (as salt: hydrochloride) [Compound 71, 2-(3,5-difluoro-4-hydroxyphenyl)-7-(piperazin-1-yl)-4H-pyrido[1,2-a]pyrimidin-4-one] |  |  |  |
| 137 to 141 °C | COc1ccc(-c2cc(=O)n3cc(N4CCCN(C)CC4)ccc3n2)cc1 [Compound 16, 2-(4-methoxyphenyl)-7-(4-methyl-1,4-diazepan-1-yl)-4H-pyrido[1,2-a]pyrimidin-4-one] | 1 to 3 µM | * (A maximum fold increase of ≤1.2 is indicated by one star (*)) |  |
| 198 to 201 °C | O=c1cc(-c2ccc3c(c2)OCO3)nc2ccc(N3CCNCC3)cn12 [Compound 18, 2-(1,3-benzodioxol-5-yl)-7-(piperazin-1-yl)-4H-pyrido[1,2-a]pyrimidin-4-one] | 0.3 to 1 µM | **** (a fold increase between >1.5 and ≤1.65 is indicated by four stars (****)) | ** (an EC1.5× between >1 μM and ≤3 μM is indicated by two stars (**)) |
| 235 to 237 °C | CN1CCN(c2ccc3nc(-c4ccc5c(c4)OCO5)cc(=O)n3c2)CC1 [Compound 19, 2-(1,3-benzodioxol-5-yl)-7-(4-methylpiperazin-1-yl)-4H-pyrido[1,2-a]pyrimidin-4-one] | 1 to 3 µM | ** (a fold increase between >1.2 and ≤1.35 is indicated by two stars (**)) |  |
| 195 to 197 °C | C[C@@H]1CN(c2ccc3nc(-c4ccc5c(c4)OCO5)cc(=O)n3c2)CCN1 [Compound 20, 2-(1,3-benzodioxol-5-yl)-7-[(3R)-3-methylpiperazin-1-yl]-4H-pyrido[1,2-a]pyrimidin-4-one] | 1 to 3 µM | **** (a fold increase between >1.5 and ≤1.65 is indicated by four stars (****)) | ** (an EC1.5× between >1 μM and ≤3 μM is indicated by two stars (**)) |
| 198 to 201 °C | C[C@@H]1CN(c2ccc3nc(-c4ccc5c(c4)OCO5)cc(=O)n3c2)C[C@H](C)N1 [Compound 21, 2-(1,3-benzodioxol-5-yl)-7-[(3R,5S)-3,5-dimethylpiperazin-1-yl]-4H-pyrido[1,2-a]pyrimidin-4-one] | 3 to 30 µM | * (A maximum fold increase of ≤1.2 is indicated by one star (*)) |  |
| 147 to 149 °C | COc1cccc(-c2cc(=O)n3cc(N4CCNCC4)ccc3n2)c1 [Compound 22, 2-(3-methoxyphenyl)-7-(piperazin-1-yl)-4H-pyrido[1,2-a]pyrimidin-4-one] | 0.3 to 1 µM | *** (a fold increase between >1.35 and ≤1.5 is indicated by three stars (***)) | ** (an EC1.5× between >1 μM and ≤3 μM is indicated by two stars (**)) |
| 173 to 175 °C | COc1cccc(-c2cc(=O)n3cc(N4CCN(C)CC4)ccc3n2)c1 [Compound 23, 2-(3-methoxyphenyl)-7-(4-methylpiperazin-1-yl)-4H-pyrido[1,2-a]pyrimidin-4-one] | 3 to 30 µM | *** (a fold increase between >1.35 and ≤1.5 is indicated by three stars (***)) |  |
| 164 to 166 °C | COc1cccc(-c2cc(=O)n3cc(N4CCN[C@H](C)C4)ccc3n2)c1 [Compound 24, 2-(3-methoxyphenyl)-7-[(3R)-3-methylpiperazin-1-yl]-4H-pyrido[1,2-a]pyrimidin-4-one] | 1 to 3 µM | *** (a fold increase between >1.35 and ≤1.5 is indicated by three stars (***)) | * (An EC1.5× for Smn protein expression between >3 μM and ≤10 μM is indicated by one star (*)) |
| 189 to 191 °C | COc1cccc(-c2cc(=O)n3cc(N4C[C@@H](C)N[C@@H](C)C4)ccc3n2)c1 [Compound 25, 7-[(3R,5S)-3,5-dimethylpiperazin-1-yl]-2-(3-methoxyphenyl)-4H-pyrido[1,2-a]pyrimidin-4-one] | 1 to 3 µM | * (A maximum fold increase of ≤1.2 is indicated by one star (*)) |  |
